Assay results published in patent US20180207138A1, “METHODS FOR THE TREATMENT OF TREMORS BY POSITIVE MODULATION OF SK CHANNELS” (Cadent Therapeutics, Inc., priority 2017, published 2018).
Read-outs that look alike come from different tables or passages of the source.

How the values were obtained:
Harmaline-induced tremor [1] = conditions: for inhibition of tremors (tremor events): FIG. 1; for Minimally Efficacious Dose: oral dosing 30 min before 10 mg/Kg ip Harmaline, tremor events over 60 min
Experimental: The structure of each of these compounds is duplicated below.
Animals were administered with either Vehicle or compound (orally) 30 minutes prior to Harmaline administration (t=−30 minutes). Animals were then dosed ip with 10 mg/Kg Harmaline HCl in isotonic saline (t=0 minutes). Immediately following Harmaline administration, animals were monitored for 1 hour (t=0-60 minutes) to quantify the number of tremor events.
Tremor events were quantified via automated capture of forelimb tremor activity and confirmed by visual observation. Prior to testing, animals were fitted with a small metal band (0.5 g) on the right forepaw and acclimated to the testing apparatus for one hour. Immediately following Harmaline administration, animals were placed in the testing apparatus and tremor events were quantified for 60 minutes. A tremor event signal was generated when the transmitter band on the animal moved within the electromagnetic field generated by a loop antenna within the testing apparatus. Outputs from the amplifier were digitized at a sampling rate of 1,000 Hz and the signal was processed and analyzed using LabView software (National Instruments). […] Data were analyzed in one-minute bins over the course of the test and presented as the sum of tremor events over the entire 60 minute test.

in vitro = conditions: brain homogenate
Experimental: (§1) It is calculated as follows: CFB=CMB×BFF, where CMB is the concentration of compound measured by mass spectrometry from brains harvested immediately following tremor recording (Table 1, “Measured Brain Concentration”). CFB is the amount of free compound not complexed with protein and therefore free to interact with the SK2 channel (Table 1, “Calculated Free Brain Concentration”). BFF is average free fraction of compound as measured by equilibrium dialysis (Table 1, “Brain Free Fraction”). This was performed by using 1 μM of compound with 10% brain tissue homogenate in phosphate buffer saline. Incubation time was 5 hours at 37° C. and detection was by LC-MS/MS. Reference compound was carbazepine. Free drug in brain available to interact with SK2 channels (CFB) is arrived at by multiplying the measured total brain level (CMB) by the average free fraction (BFF).

[2] = male, Sprague Dawley, rat, in vivo; for Measured Brain Concentration: po
Experimental: as §1

harmaline-induced tremor [3] = conditions: for tremor, power spectrum in 10-14 Hz band: 5 mg/kg ip harmaline, 30 minutes; for percent Motion Power (% MP): FIG. 3
Experimental: Whole body tremor was measured by a San Diego Instruments Tremor Monitor (San Diego, Calif., USA). […] Tremor was measured for 30 minutes following harmaline administration, and data were analyzed by fast Fourier transform and reported as a frequency power spectrum. […] Data were further analyzed by calculating the percent Motion Power (% MP), defined as the power in the 9-13 Hz band divided by the total power across the spectrum (0-30 Hz) multiplied by 100.

| SMILES | inhibition of tremors (tremor events) (Harmaline-induced tremor [1]; 60 mg/Kg orally) | Minimally Efficacious Dose (Harmaline-induced tremor [1]) [mg/kg] | fraction unbound at 5 h, 1 μM (in vitro) | Calculated Free Brain Concentration [2] [µM] | Measured Brain Concentration [2] [µM] | inhibition of tremors (tremor events) (Harmaline-induced tremor [1]; 30 mg/Kg orally) | tremor, power spectrum in 10-14 Hz band (harmaline-induced tremor [3]; 3 mg/kg orally) | percent Motion Power (% MP) (harmaline-induced tremor [3]; 3 mg/kg orally, n=8, P<0.01 vs harmaline+vehicle) | tremor, power spectrum in 10-14 Hz band (harmaline-induced tremor [3]; 10 mg/kg orally) | percent Motion Power (% MP) (harmaline-induced tremor [3]; 10 mg/kg orally, n=16, P<0.05 vs harmaline+vehicle) | tremor, power spectrum in 10-14 Hz band (harmaline-induced tremor [3]; 30 mg/kg orally) | percent Motion Power (% MP) (harmaline-induced tremor [3]; 30 mg/kg orally, n=13, P<0.05 vs harmaline+vehicle) |
| --- | --- | --- | --- | --- | --- | --- | --- | --- | --- | --- | --- | --- |
| Cc1cc(C)n(-c2nc(NC3CCC(F)(F)CC3)cc(N3CCOCC3)n2)n1 [Compound 1] | significant inhibition of tremors | 60 | 0.048 | 0.15 | 3.1 |  |  |  |  |  |  |  |
| Cc1ccn(-c2nc(NC3CCC(F)(F)CC3)cc(N3CCOCC3)n2)n1 [Compound 2] |  | 30 |  | 0.08 | 1.3 | significant inhibition of tremors | significantly reduced tremor | significantly reduced harmaline-induced tremor | significantly reduced tremor | significantly reduced harmaline-induced tremor | significantly reduced tremor | significantly reduced harmaline-induced tremor |
